The structures appear in SMILES notation. ≈ marks a conversion by molar mass, not a printed value. Calls of active or inactive are those of the source. The calls are words filed in the database; no cut-off is given here.

The values that follow come from ChEMBL document CHEMBL6103585, “Construction and activity evaluation of novel CHS inhibitors against fungal infections” (Eur J Med Chem, 2025).

Test [1] relates to Candida albicans. The test can be described thus: In vivo antifungal activity against Candida albicans 901 infected in mouse model assessed as expansion of alveolar spaces in lung at 5 microg/g, iv pre-infected with fungi by intravenous injection followed by compound administration and measured on day 8 by H and E staining based analysis. Type of test: functional, organism-based. The following applies: dose 5.0 µg/g, time 8.0 day.

Test [2] relates to Nakaseomyces glabratus. The test can be described thus: Antifungal activity against Candida glabrata assessed as fungal growth inhibition incubated for 72 hrs by broth microdilution method. The class given is functional. (In general: In broth dilution the organism is exposed to a series of concentrations in liquid medium.)
The subject of test [3] is Candida albicans. The test can be described thus: Antifungal activity against fluconazole-resistant Candida albicans 901 assessed as reduction in fungal growth incubated for 72 hrs by broth microdilution method. Type of test: functional.
The test system of test [4] is Candida albicans. The test can be described thus: Antifungal activity against fluconazole-resistant Candida albicans 632 assessed as reduction in fungal growth incubated for 72 hrs by broth microdilution method. Type of test: functional.
The test system of test [5] is Cryptococcus neoformans. The test can be described thus: Antifungal activity against Cryptococcus neoformans ZKCC 2209 assessed as fungal growth inhibition incubated for 72 hrs by broth microdilution method. Type of test: functional.
Test [6] is described as follows: Binding affinity to chitin synthase (unknown origin) assessed as dissociation constant by SPR analysis. In general terms: SPR reads the build-up and loss of mass on a sensor chip optically.
Test [7] in a line: Inhibition of chitin synthase extracted from Candida tropicalis ATCC 1369 using UDP-GlcNAc as substrate incubated for 1 hrs.
Test [8] concerns Candida tropicalis. The test can be described thus: Antifungal activity against Candida tropicalis ATCC 1369 assessed as fungal growth inhibition incubated for 72 hrs by broth microdilution method. Type of test: functional.
Test [9] deals with Candida albicans. The test can be described thus: Antifungal activity against fluconazole-resistant Candida albicans 904 assessed as reduction in fungal growth incubated for 72 hrs by broth microdilution method. The class given is functional.
Test [10] deals with Candida albicans. The test can be described thus: Induction of ROS generation in Candida albicans ATCC SC5314 assessed as increase in fluorescence intensity incubated for 12 hrs by fluorescence microscopic analysis. The class given is functional, organism-based.
Test [11] deals with A549. The test can be described thus: Cytotoxicity against human A549 cells incubated for 24 hrs by CCK8 assay. The class given is functional, cell-based. The following applies: A549, 24 h. On the technique in general: Tetrazolium assays rely on reduction of a dye to a coloured formazan, in cell work by metabolically active cells.
The test system of test [12] is Candida albicans. The test can be described thus: Antifungal activity against fluconazole-resistant Candida albicans CaR assessed as reduction in fungal growth incubated for 72 hrs by broth microdilution method. Type of test: functional.
Test [13] has as its system Candida albicans. The test can be described thus: Induction of apoptosis in Candida albicans ATCC SC5314 assessed as necrotic cells by V-FITC/PI staining based flow cytometric analysis (reference value: 2.74%). The class given is functional.
Test [14] has as its system HeLa. The test can be described thus: Cytotoxicity against human HeLa cells incubated for 24 hrs by CCK8 assay. Type of test: functional, cell-based.
For test [15], the system named is Candida albicans. The test can be described thus: Induction of apoptosis in Candida albicans ATCC SC5314 assessed as viable cells by V-FITC/PI staining based flow cytometric analysis (reference value: 93.3%). Type of test: functional.
For test [16], the system named is Aspergillus fumigatus. The test can be described thus: Antifungal activity against Aspergillus fumigatus KM 8001 assessed as fungal growth inhibition incubated for 72 hrs by broth microdilution method. Type of test: functional.
In test [17] the test system is Candida albicans. The test can be described thus: Antifungal activity against fluconazole-resistant Candida albicans 17# assessed as reduction in fungal growth incubated for 72 hrs by broth microdilution method. Type of test: functional.
For test [18], the system named is Candida albicans. The test can be described thus: Antifungal activity against Candida albicans ATCC SC5314 assessed as fungal growth inhibition incubated for 72 hrs by broth microdilution method. Type of test: functional.
Test [19] concerns Candida albicans. The test can be described thus: Fungicidal activity against Candida albicans ATCC SC5314 assessed as dead cells (reference value: 8%). The class given is functional.
For test [20], the system named is Candida albicans. The test can be described thus: Fungicidal activity against Candida albicans ATCC SC5314 assessed as live cells (reference value: 92%). Type of test: functional.
Test [21] relates to Candida albicans. The test can be described thus: Induction of apoptosis in Candida albicans ATCC SC5314 assessed as late apoptotic cells by V-FITC/PI staining based flow cytometric analysis (reference value: 0.40%). Type of test: functional.
Test [22] concerns Candida albicans. The test can be described thus: Induction of apoptosis in Candida albicans ATCC SC5314 assessed as early apoptotic cells by V-FITC/PI staining based flow cytometric analysis (reference value: 3.51%). The class given is functional.
Test [23] deals with Candida albicans. The test can be described thus: In vivo antifungal activity against Candida albicans 901 infected in mouse model assessed as decrease in PD-L1 protein expression level at 5 microg/g, iv pre-infected with fungi by intravenous injection followed by compound administration and measured on day 8 by Western blotting analysis. Type of test: functional, organism-based. The following applies: dose 5.0 µg/g, time 8.0 day.

For test [24], the system named is Candida albicans. The test can be described thus: In vivo antifungal activity against Candida albicans 901 infected in mouse model assessed as body weight gain at 5 microg/g, iv pre-infected with fungi by intravenous injection followed by compound administration and measured on day 8. The following applies: dose 5.0 µg/g, time 8.0 day. The class given is functional, organism-based.

Test [25] has as its system Candida albicans. The test can be described thus: In vivo antifungal activity against Candida albicans 901 infected in mouse model assessed as decrease in IL-2 protein expression level at 5 microg/g, iv pre-infected with fungi by intravenous injection followed by compound administration and measured on day 8 by Western blotting analysis. Type of test: functional, organism-based. The following applies: dose 5.0 µg/g, time 8.0 day.

The test system of test [26] is Candida albicans. The test can be described thus: In vivo antifungal activity against Candida albicans 901 infected in mouse model assessed as reduction in genetic material content in lung at 5 microg/g, iv pre-infected with fungi by intravenous injection followed by compound administration and measured on day 8 by H and E staining based analysis. Type of test: functional, organism-based. The following applies: dose 5.0 µg/g, time 8.0 day.

Test [27] has as its system Candida albicans. The test can be described thus: In vivo antifungal activity against Candida albicans 901 infected in mouse model assessed as decrease in IFN-gamma protein expression level at 5 microg/g, iv pre-infected with fungi by intravenous injection followed by compound administration and measured on day 8 by Western blotting analysis. Type of test: functional, organism-based. The following applies: dose 5.0 µg/g, time 8.0 day.

Test [28] has as its system Candida albicans. The test can be described thus: In vivo antifungal activity against Candida albicans 901 infected in mouse model assessed as decrease in IDO protein expression level at 5 microg/g, iv pre-infected with fungi by intravenous injection followed by compound administration and measured on day 8 by Western blotting analysis. Type of test: functional, organism-based. The following applies: dose 5.0 µg/g, time 8.0 day.

Regarding `C[C@@H](c1ncncc1F)[C@](O)(Cn1cncn1)c1ccc(F)cc1F`, in [1], the result was inactive.

One may read the MIC50 as an inhibitory concentration at the 50% level, which refers to growth in some studies and to a panel of isolates in others. The Kd is the concentration at which binding is half-saturated. Broadly, the IC50 is the concentration that inhibits the measured activity by half. The low end stands for greater potency, the high end for weaker potency. With `O=C(NCC(=O)N1CCN(C(=O)c2ccccc2)CC1)c1nc2ccc(Cl)cc2c(=O)[nH]1`, the MIC50 was 1 µg/mL (≈ 2.2 µM) in test [2]; 8 µg/mL (≈ 17.6 µM) in [3]; 4 µg/mL (≈ 8.81 µM) in [4]; 4 µg/mL (≈ 8.81 µM) in test [5]; 0.5 µg/mL (≈ 1.1 µM) in [8]; 2 µg/mL (≈ 4.41 µM) in test [9]. Besides, the MIC50 in test [12] was 2 µg/mL (≈ 4.41 µM); in [16], 2 µg/mL (≈ 4.41 µM); in test [17] it was 4 µg/mL (≈ 8.81 µM); in test [18], 0.5 µg/mL (≈ 1.1 µM). Moreover, in [6], the Kd stood at 0.00194 µM. The IC50 was 19.7 µM in [7], over 50 µM in [11] and over 50 µM in test [14]. For the same compound, the outcome in [10] was Active. Also, the Activity in [13] is given as 23.6%; in test [15], 53.2%; in test [19], 94%; in [20], 6%; in test [21], 12.1%; in test [22], 11.1%.

Consider `NC(=O)OC[C@H](O)[C@@H](O)[C@H](N)C(=O)N[C@H](C(=O)O)[C@H]1O[C@@H](n2cc(CO)c(=O)[nH]c2=O)[C@H](O)[C@@H]1O` [POLYOXIN B], for which the result in [23], in [1], in test [24], in [25], in test [10] and in [26] was Active. Also, the result in test [27] and in test [28] was Active. In addition, the MIC50 in test [2] worked out at 2 µg/mL (≈ 3.94 µM); in test [3] it was 4 µg/mL (≈ 7.88 µM); in [4], 4 µg/mL (≈ 7.88 µM); in test [5], 4 µg/mL (≈ 7.88 µM); in [8] it was 8 µg/mL (≈ 15.8 µM); in test [9], 8 µg/mL (≈ 15.8 µM). Moreover, the MIC50 was 8 µg/mL (≈ 15.8 µM) in [12], at least 16 µg/mL in [16], 2 µg/mL (≈ 3.94 µM) in test [17] and 4 µg/mL (≈ 7.88 µM) in [18]. Moreover, the Kd in test [6] is 0.00562 µM. Besides, the figures for the IC50 in test [7], in [11] and in [14] were 25.5 µM, over 50 µM and over 50 µM, respectively. In addition, the Activity in [13] turned out to be 33%; in test [15], 57.5%; in test [19], 81%; in test [20], 19%; in test [21] it was 4.5%; in [22], 4.93%.

Consider `O=C(NCC(=O)N1CCN(c2ccccc2)CC1)c1nc2ccc(Cl)cc2c(=O)[nH]1`, for which the MIC50 was determined as 1 µg/mL (≈ 2.35 µM) in [2]; 8 µg/mL (≈ 18.8 µM) in test [3]; 8 µg/mL (≈ 18.8 µM) in test [4]; 2 µg/mL (≈ 4.7 µM) in [5]; 1 µg/mL (≈ 2.35 µM) in [8]; 4 µg/mL (≈ 9.39 µM) in test [9]. Further, the MIC50 was 4 µg/mL (≈ 9.39 µM) in test [12], 4 µg/mL (≈ 9.39 µM) in test [16], 2 µg/mL (≈ 4.7 µM) in test [17] and 0.5 µg/mL (≈ 1.17 µM) in test [18]. The Kd in test [6] is 0.0608 µM. For the same compound, the IC50 in test [11] and in test [14] was over 50 µM throughout. For the same compound, the Activity in test [13] is on record as 16.6%; in test [15] it was 62.9%; in test [19], 78%; in test [20], 22%; in test [21], 7.3%; in test [22] it was 13.2%.

As for `O=C(CNC(=O)c1nc2ccc(Cl)cc2c(=O)[nH]1)NCc1ccccc1`, the MIC50 in [2] is 8 µg/mL (≈ 21.6 µM); in test [5], at least 16 µg/mL; in test [8], 2 µg/mL (≈ 5.39 µM); in [16] it was 8 µg/mL (≈ 21.6 µM); in test [18], 4 µg/mL (≈ 10.8 µM). Besides, in [7], the IC50 came out at 30.3 µM.

Take `OC(Cn1cncn1)(Cn1cncn1)c1ccc(F)cc1F` [FLUCONAZOLE]: the MIC50 was 1 µg/mL (≈ 3.27 µM) in [2]; at least 16 µg/mL in test [3]; at least 16 µg/mL in test [4]; 2 µg/mL (≈ 6.53 µM) in test [5]; 0.5 µg/mL (≈ 1.63 µM) in [8]; at least 16 µg/mL in test [9]. Moreover, the MIC50 was at least 16 µg/mL in test [12], 4 µg/mL (≈ 13.1 µM) in [16], at least 16 µg/mL in test [17] and 1 µg/mL (≈ 3.27 µM) in test [18].

As to `O=C(CNC(=O)c1nc2ccc(Cl)cc2c(=O)[nH]1)Nc1cccnc1`, the MIC50 in test [2] is 4 µg/mL (≈ 11.2 µM); in test [5] it was 8 µg/mL (≈ 22.4 µM); in [8], 8 µg/mL (≈ 22.4 µM); in [16], at least 16 µg/mL; in [18] it was 8 µg/mL (≈ 22.4 µM).

Turning to `CC(=O)N1CCN(C(=O)CNC(=O)c2nc3ccc(Cl)cc3c(=O)[nH]2)CC1`, the MIC50 was 2 µg/mL (≈ 5.1 µM) in test [2]; at least 16 µg/mL in [5]; 1 µg/mL (≈ 2.55 µM) in test [8]; 8 µg/mL (≈ 20.4 µM) in test [16]; 1 µg/mL (≈ 2.55 µM) in test [18].
